Measured values published in US8623859B2, “Bradykinin B1 antagonists” (Evotec AG, priority 2008, dated 2014).
pIC50: −log10 of the molar value. Structures can show the parent of a compound that is named as a salt.

Target: T1, human B1 (Homo sapiens, UniProt P46663)
T1 construct: host or cells: CHO-K1
T1 sequence (P46663 1-353): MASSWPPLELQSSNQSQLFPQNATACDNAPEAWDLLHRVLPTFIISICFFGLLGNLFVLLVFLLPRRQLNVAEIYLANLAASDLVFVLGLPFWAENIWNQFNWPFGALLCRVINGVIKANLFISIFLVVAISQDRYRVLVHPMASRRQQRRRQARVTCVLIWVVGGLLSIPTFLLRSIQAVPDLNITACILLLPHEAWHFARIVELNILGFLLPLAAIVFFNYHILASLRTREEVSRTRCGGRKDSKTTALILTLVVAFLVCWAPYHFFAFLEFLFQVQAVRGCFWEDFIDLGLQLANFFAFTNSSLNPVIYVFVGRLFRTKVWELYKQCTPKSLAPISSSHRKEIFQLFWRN
Assay: Calcium flux assay for Bradykinin B1 antagonist, CHO-K1 cell line expressing human B1
Format: cell-based
Conditions: CHO-K1 cells expressing human B1, agonist Lys-(Des-Arg)-Bradykinin, read-out: Potency (IC50 value against human B1)
In short: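 CHO-K1 cells expressing human B1, loaded with 5 μM Fluo-4AM (2 h, 37° C) in HEPES buffer pH 7.4 with probenecid and 0.1% BSA, were preincubated 30 min at 25° C with compound (8 concentrations, triplicate, 1% DMSO) before B1 agonist addition. Ca2+ fluorescence monitored at 538 nm; background-normalized integrated values plotted against log antagonist concentration.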

Structure (SMILES)	pIC50
COc1cc(C)c(S(=O)(=O)N(C)Cc2cc(C(=O)NCc3ccc(Nc4cccc[n+]4C)cc3)co2)c(C)c1 [Ex 12, 2-({4-[({[5-({[(4-methoxy-2,6-dimethylphenyl)sulfonyl](methyl)amino}methyl)furan-3-yl]carbonyl}amino)methyl]phenyl}amino)-1-methylpyridinium iodide]	6.00 to 7.00
COc1cc(C)c(S(=O)(=O)N(C)Cc2cc(C(=O)N(C)Cc3ccc(CN4CCC(C(=O)N(C)C)C4)cc3)co2)c(C)c1 (centres unmarked) [Ex 131, 1-(4-{[{[5-({[(4-Methoxy-2,6-dimethylphenyl)sulfonyl](methyl)amino}methyl)furan-3-yl]carbonyl}(methyl)amino]methyl}benzyl)-N,N-dimethylpyrrolidine-3-carboxamide]	6.00 to 7.00
COc1cc(C)c(S(=O)(=O)N(C)Cc2nnc(C(=O)N(C)CCc3ccc(C4=NCCN4)cc3)s2)c(C)c1 [Ex 328, N-{2-[4-(4,5-Dihydro-1H-imidazol-2-yl)phenyl]ethyl}-5-({[(4-methoxy-2,6-dimethylphenyl)sulfonyl](methyl)amino}methyl)-N-methyl-1,3,4-thiadiazole-2-carboxamide]	> 8.00
COc1cc(C)c(S(=O)(=O)N(C)Cc2nnc(C(=O)N(C)Cc3cccc(CN4CCCC4)c3)s2)c(C)c1 [Ex 331, 5-({[(4-Methoxy-2,6-dimethylphenyl)sulfonyl](methyl)amino}methyl)-N-methyl-N-[3-(pyrrolidin-1-ylmethyl)benzyl]-1,3,4-thiadiazole-2-carboxamide trifluoroacetate]	7.00 to 8.00
COc1cc(C)c(S(=O)(=O)N(C)Cc2cc(C(=O)N3CCN(C4CCN(C)CC4)CC3)no2)c(C)c1 [Ex 65, 4-Methoxy-N,2,6-trimethyl-N-[(3-{[4-(1-methylpiperidin-4-yl)piperazin-1-yl]carbonyl}isoxazol-5-yl)methyl]benzenesulfonamide]	6.00 to 7.00
COc1cc(C)c(S(=O)(=O)N(Cc2nc(C(=O)N3CCN(CCCN4CCCC4)CC3)co2)C2CC2)c(C)c1 [Ex 197, N-Cyclopropyl-4-methoxy-2,6-dimethyl-N-[(4-{[4-(3-pyrrolidin-1-ylpropyl)piperazin-1-yl]carbonyl}-1,3-oxazol-2-yl)methyl]benzenesulfonamide trifluoroacetate]	> 8.00
CCN(Cc1cc(C(=O)N(C)Cc2ccc(CN3CCCC3)cc2)co1)S(=O)(=O)c1c(C)cc(OC)cc1C [Ex 102, 5-({Ethyl[(4-methoxy-2,6-dimethylphenyl)sulfonyl]amino}methyl)-N-methyl-N-[4-(pyrrolidin-1-ylmethyl)benzyl]furan-3-carboxamide trifluoroacetate]	6.00 to 7.00
COc1cc(C)c(S(=O)(=O)N(C)Cc2nc(C(=O)N(C)Cc3ccc(CN4CCCC(O)C4)cc3)co2)c(C)c1 (centres unmarked) [Ex 179, N-{4-[(3-Hydroxypiperidin-1-yl)methyl]benzyl}-2-({[(4-methoxy-2,6-dimethylphenyl)sulfonyl](methyl)amino}methyl)-N-methyl-1,3-oxazole-4-carboxamide]	> 8.00
COc1cc(C)c(S(=O)(=O)N(C)Cc2cc(C(=O)N3CCN(C4CCN(C)CC4)CC3)co2)c(C)c1 [Ex 1, 4-Methoxy-N,2,6-trimethyl-N-[(4-{[4-(1-methylpiperidin-4-yl)piperazin-1-yl]carbonyl}furan-2-yl)methyl]benzenesulfonamide]	6.00 to 7.00
COc1cc(C)c(S(=O)(=O)N(C)Cc2nnc(C(=O)N3CCN(Cc4ccc(C(F)(F)F)nc4)CC3)o2)c(C)c1 [Ex 262, 4-Methoxy-N,2,6-trimethyl-N-({5-[(4-{[6-(trifluoromethyl)pyridin-3-yl]methyl}piperazin-1-yl)carbonyl]-1,3,4-oxadiazol-2-yl}methyl)benzenesulfonamide trifluoroacetate]	6.00 to 7.00
COc1cc(C)c(S(=O)(=O)N(Cc2nc(C(=O)N(C)Cc3ccc(CN4CCCC(OC)C4)cc3)co2)C2CC2)c(C)c1 (centres unmarked) [Ex 184, 2-({Cyclopropyl[(4-methoxy-2,6-dimethylphenyl)sulfonyl]amino}methyl)-N-{4-[(3-methoxypiperidin-1-yl)methyl]benzyl}-N-methyl-1,3-oxazole-4-carboxamide]	> 8.00
COc1cc(C)c(S(=O)(=O)N(C)Cc2cc(C(=O)N(C)Cc3ccc(CN4CCCC(O)C4)cc3)co2)c(C)c1 (centres unmarked) [Ex 134, N-{4-[(3-Hydroxypiperidin-1-yl)methyl]benzyl}-5-({[(4-methoxy-2,6-dimethylphenyl)sulfonyl](methyl)amino}methyl)-N-methylfuran-3-carboxamide]	> 8.00
COc1cc(C)c(S(=O)(=O)N(Cc2cc(C(=O)N3CCC(CCN4CCCC4)CC3)co2)C2CC2)c(C)c1 [Ex 120, N-Cyclopropyl-4-methoxy-2,6-dimethyl-N-[(4-{[4-(2-pyrrolidin-1-ylethyl)piperidin-1-yl]carbonyl}furan-2-yl)methyl]benzenesulfonamide trifluoroacetate]	> 8.00
COc1cc(C)c(S(=O)(=O)N(C)Cc2cc(C(=O)N(C)Cc3cc(CN4CCCC4)ccc3F)co2)c(C)c1 [Ex 156, N-[2-Fluoro-5-(pyrrolidin-1-ylmethyl)benzyl]-5-({[(4-methoxy-2,6-dimethylphenyl)sulfonyl](methyl)amino}methyl)-N-methylfuran-3-carboxamide trifluoroacetate]	7.00 to 8.00
COc1cc(C)c(S(=O)(=O)N(C)Cc2cc(C(=O)NCc3cccc(CN4CCCC4)c3)co2)c(C)c1 [Ex 11, 5-({[(4-methoxy-2,6-dimethylphenyl)sulfonyl](methyl)amino}methyl)-N-[3-(pyrrolidin-1-ylmethyl)benzyl]furan-3-carboxamide]	6.00 to 7.00
COc1cc(C)c(S(=O)(=O)N(Cc2nc(C(=O)N(C)Cc3ccc(CN4CCC(OC)CC4)cc3)co2)C2CC2)c(C)c1 [Ex 183, 2-({Cyclopropyl[(4-methoxy-2,6-dimethylphenyl)sulfonyl]amino}methyl)-N-{4-[(4-methoxypiperidin-1-yl)methyl]benzyl}-N-methyl-1,3-oxazole-4-carboxamide]	> 8.00
CN(Cc1cc(C(=O)NCc2ccc(C3=NCCN3)cc2)co1)S(=O)(=O)c1c(Cl)cccc1Cl [Ex 26, 5-({[(2,6-dichlorophenyl)sulfonyl](methyl)amino}methyl)-N-[4-(4,5-dihydro-1H-imidazol-2-yl)benzyl]furan-3-carboxamide]	6.00 to 7.00
COc1cc(C)c(S(=O)(=O)N(Cc2cc(C(=O)N(C)Cc3ccc(CN4CCCC(O)C4)cc3)co2)C2CC2)c(C)c1 (centres unmarked) [Ex 142, 5-({Cyclopropyl[(4-methoxy-2,6-dimethylphenyl)sulfonyl]amino}methyl)-N-{4-[(3-hydroxypiperidin-1-yl)methyl]benzyl}-N-methylfuran-3-carboxamide]	> 8.00
COc1cc(C)c(S(=O)(=O)N(C)Cc2nc(C(=O)N3CCN(C4CCN(C)CC4)CC3)co2)c(C)c1 [Ex 66, 4-Methoxy-N,2,6-trimethyl-N-[(4-{[4-(1-methylpiperidin-4-yl)piperazin-1-yl]carbonyl}-1,3-oxazol-2-yl)methyl]benzenesulfonamide]	7.00 to 8.00
COc1cc(C)c(S(=O)(=O)N(C)Cc2cc(C(=O)N(C)Cc3ccc(C4=NCCN4)cc3)c(C)o2)c(C)c1 [Ex 58, N-[4-(4,5-dihydro-1H-imidazol-2-yl)benzyl]-5-({[(4-methoxy-2,6-dimethylphenyl)sulfonyl](methyl)amino}methyl)-N,2-dimethylfuran-3-carboxamide]	7.00 to 8.00
